Experiment [1] has as its target Sodium-dependent serotonin transporter (Homo sapiens, UniProt P31645). The experiment can be described thus: Displacement of [125I]-IDAM from SERT transfected in pig LLC-PK1 cells by radioligand competition binding assay. It is filed as cell-based. In general terms: In a radioligand displacement assay an active substance lowers the binding of a labelled ligand.
Experiment [2] is described as follows: Selectivity ratio of Ki for SERT to Ki for DAT.
A short description of experiment [3]: Selectivity ratio of Ki for NET to Ki for DAT.
Experiment [4] addresses Sodium-dependent dopamine transporter (Homo sapiens, UniProt Q01959). The experiment can be described thus: Displacement of [125I]-IPT from DAT transfected in pig LLC-PK1 cells by radioligand competition binding assay. The class given is cell-based.
For experiment [5], the target named is Sodium-dependent noradrenaline transporter (Homo sapiens, UniProt P23975). The experiment can be described thus: Displacement of [125I]-INXT from NET transfected in pig LLC-PK1 cells by radioligand competition binding assay. It is filed as cell-based.

This note sets out measurements from ChEMBL document CHEMBL1914398, “Synthesis and evaluation of novel N-fluoropyridyl derivatives of tropane as potential PET imaging agents for the dopamine transporter” (Bioorg Med Chem Lett, 2011).

As a reminder, the Ki is the equilibrium dissociation constant of an inhibitor or competing ligand from its target.

Chain of Sodium-dependent dopamine transporter (Q01959 whole entry): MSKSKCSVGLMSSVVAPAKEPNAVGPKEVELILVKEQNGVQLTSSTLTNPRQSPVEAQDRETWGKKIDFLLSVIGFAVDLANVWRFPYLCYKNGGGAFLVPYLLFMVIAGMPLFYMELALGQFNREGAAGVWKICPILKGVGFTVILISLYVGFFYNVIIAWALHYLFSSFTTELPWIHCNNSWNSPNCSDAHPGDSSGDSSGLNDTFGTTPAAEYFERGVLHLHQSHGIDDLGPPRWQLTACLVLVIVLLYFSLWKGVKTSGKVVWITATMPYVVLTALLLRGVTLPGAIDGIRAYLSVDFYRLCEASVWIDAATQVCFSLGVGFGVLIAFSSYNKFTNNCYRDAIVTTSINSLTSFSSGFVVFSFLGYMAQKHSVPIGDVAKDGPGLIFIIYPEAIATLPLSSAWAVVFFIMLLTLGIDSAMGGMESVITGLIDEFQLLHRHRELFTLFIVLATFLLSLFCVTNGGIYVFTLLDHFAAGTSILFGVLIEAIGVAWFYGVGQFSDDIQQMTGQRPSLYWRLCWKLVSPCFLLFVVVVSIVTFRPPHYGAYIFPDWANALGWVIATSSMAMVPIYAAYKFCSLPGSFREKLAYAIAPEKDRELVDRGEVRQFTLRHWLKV
Chain of Sodium-dependent serotonin transporter (P31645 whole entry): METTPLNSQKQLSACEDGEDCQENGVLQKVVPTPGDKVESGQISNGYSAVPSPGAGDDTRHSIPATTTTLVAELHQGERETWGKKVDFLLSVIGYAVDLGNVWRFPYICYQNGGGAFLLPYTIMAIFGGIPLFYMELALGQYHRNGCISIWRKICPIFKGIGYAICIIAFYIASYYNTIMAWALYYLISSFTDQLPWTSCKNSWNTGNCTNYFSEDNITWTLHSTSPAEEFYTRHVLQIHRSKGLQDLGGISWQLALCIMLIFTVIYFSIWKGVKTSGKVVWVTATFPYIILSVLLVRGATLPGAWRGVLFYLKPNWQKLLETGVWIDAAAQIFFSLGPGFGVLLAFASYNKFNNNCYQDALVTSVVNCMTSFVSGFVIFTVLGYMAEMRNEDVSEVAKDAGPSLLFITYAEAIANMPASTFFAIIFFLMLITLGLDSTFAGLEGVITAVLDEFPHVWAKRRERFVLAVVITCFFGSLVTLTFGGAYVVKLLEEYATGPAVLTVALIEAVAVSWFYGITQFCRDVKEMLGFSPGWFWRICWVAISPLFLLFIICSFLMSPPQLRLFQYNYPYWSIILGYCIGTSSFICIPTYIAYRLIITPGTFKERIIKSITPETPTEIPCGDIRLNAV
Chain of Sodium-dependent noradrenaline transporter (P23975 whole entry): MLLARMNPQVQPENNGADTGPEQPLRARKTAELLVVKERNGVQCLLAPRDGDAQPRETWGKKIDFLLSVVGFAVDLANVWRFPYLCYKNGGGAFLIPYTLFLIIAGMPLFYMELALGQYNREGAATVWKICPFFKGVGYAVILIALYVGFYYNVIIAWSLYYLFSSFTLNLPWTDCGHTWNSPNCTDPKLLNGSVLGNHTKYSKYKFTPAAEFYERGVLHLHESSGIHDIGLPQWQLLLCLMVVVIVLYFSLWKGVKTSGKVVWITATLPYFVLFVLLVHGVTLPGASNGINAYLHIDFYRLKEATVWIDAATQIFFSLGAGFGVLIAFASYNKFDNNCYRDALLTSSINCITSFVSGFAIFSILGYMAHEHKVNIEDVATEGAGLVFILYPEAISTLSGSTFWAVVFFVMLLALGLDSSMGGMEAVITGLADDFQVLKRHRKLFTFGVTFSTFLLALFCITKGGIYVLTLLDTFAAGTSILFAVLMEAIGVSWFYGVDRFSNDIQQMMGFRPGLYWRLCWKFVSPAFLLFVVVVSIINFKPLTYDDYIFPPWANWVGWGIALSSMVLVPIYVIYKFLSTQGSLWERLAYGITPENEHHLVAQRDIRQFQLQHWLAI

As to `CN1C2CCC1[C@@H](CNc1ccc(Br)nc1)[C@@H](c1ccc(Cl)cc1)C2` (some centres not stated), the Ki in experiment [1] was 10.5 nM; in experiment [4], 17.9 nM; in experiment [5], 49.1 nM. Also, the Ratio Ki worked out at 0.6 in experiment [2] and 2.7 in experiment [3].

For `COC(=O)[C@H]1[C@@H](c2ccc(F)cc2)C[C@H]2CC[C@H]1N2C`, the inhibition constant (Ki) in experiment [1] is 181 nM; in experiment [5] it was 635 nM.

For `CN1C2CCC1[C@@H](C(=O)Nc1ccc(Br)nc1)[C@@H](c1ccc(Cl)cc1)C2` (some centres not stated), the inhibition constant Ki in experiment [1] came out at 15300 nM; in experiment [4], 106 nM; in experiment [5], 16200 nM. In addition, the Ratio Ki in experiment [2] came out at 144; in experiment [3], 153.

For `CN1C2CCC1[C@@H](C(=O)Nc1ccnc(Br)c1)[C@@H](c1ccc(Cl)cc1)C2` (some centres not stated), the Ki is 10300 nM in experiment [1], 82.2 nM in experiment [4] and 12100 nM in experiment [5]. The Ratio Ki in experiment [2] was found to be 125; in experiment [3] it was 147.

For the compound `CN1C2CCC1[C@@H](C(=O)Nc1cccc(Br)n1)[C@@H](c1ccc(Cl)cc1)C2` (some centres not stated), the Ki in experiment [1] came out at 3210 nM; in experiment [4], 86.7 nM; in experiment [5] it was 3850 nM. For the same compound, the figures for the Ratio Ki in experiment [2] and in experiment [3] were 37 and 44, respectively.

As to `CN1C2CCC1[C@@H](CNc1ccnc(Br)c1)[C@@H](c1ccc(Cl)cc1)C2` (some centres not stated), the values for the Ki in experiment [1], in experiment [4] and in experiment [5] were 11 nM, 7.9 nM and 27.7 nM, respectively. Moreover, the Ratio Ki in experiment [2] turned out to be 1.4; in experiment [3], 3.5.
